ChEMBL document CHEMBL5696443 (Clin Cancer Res, 2016)
The source made the active and inactive calls. The rule behind the calls is not given here.

Assays:
[1] = target: Focal adhesion kinase 1 (Homo sapiens, UniProt Q05397); experiment: Inhibition of human FAK using poly (Glu, Tyr)4:1 as substrate in presence of [gamma33P]-ATP by HotSpot assay
[2] = target: Serine/threonine-protein kinase D1 (Homo sapiens, UniProt Q15139); experiment: Inhibition of human PRKD1 using KKLNRTLSVA as substrate in presence of [gamma33P]-ATP by HotSpot assay
[3] = target: Maternal embryonic leucine zipper kinase (Homo sapiens, UniProt Q14680); experiment: Inhibition of human MELK using KKLNRTLSFAEPG as substrate in presence of [gamma33P]-ATP by HotSpot assay
[4] = target: CDK3/Cyclin E (Homo sapiens) (UniProt P24864+Q00526); experiment: Inhibition of human CDK3/CyclinE at 1 uM using RB protein as substrate in presence of [gamma33P]-ATP by HotSpot assay relative to control; format: protein-complex assay
[5] = target: Casein kinase I isoform gamma-1 (Homo sapiens) (UniProt Q9HCP0); experiment: Inhibition of human CSNK1G1 at 1 uM using KRRRAL[pS]VASLPGL as substrate in presence of [gamma33P]-ATP by HotSpot assay relative to control
[6] = target: Death-associated protein kinase 3 (Homo sapiens) (UniProt O43293); experiment: Inhibition of human DAPK3 at 1 uM using KKLNRTLSFAEPG as substrate in presence of [gamma33P]-ATP by HotSpot assay relative to control
[7] = target: G protein-coupled receptor kinase 4 (Homo sapiens) (UniProt P32298); experiment: Inhibition of human GRK4 at 1 uM using casein as substrate in presence of [gamma33P]-ATP by HotSpot assay relative to control
G protein-coupled receptor kinase 4 (Homo sapiens), sequence (P32298 whole entry, looked up): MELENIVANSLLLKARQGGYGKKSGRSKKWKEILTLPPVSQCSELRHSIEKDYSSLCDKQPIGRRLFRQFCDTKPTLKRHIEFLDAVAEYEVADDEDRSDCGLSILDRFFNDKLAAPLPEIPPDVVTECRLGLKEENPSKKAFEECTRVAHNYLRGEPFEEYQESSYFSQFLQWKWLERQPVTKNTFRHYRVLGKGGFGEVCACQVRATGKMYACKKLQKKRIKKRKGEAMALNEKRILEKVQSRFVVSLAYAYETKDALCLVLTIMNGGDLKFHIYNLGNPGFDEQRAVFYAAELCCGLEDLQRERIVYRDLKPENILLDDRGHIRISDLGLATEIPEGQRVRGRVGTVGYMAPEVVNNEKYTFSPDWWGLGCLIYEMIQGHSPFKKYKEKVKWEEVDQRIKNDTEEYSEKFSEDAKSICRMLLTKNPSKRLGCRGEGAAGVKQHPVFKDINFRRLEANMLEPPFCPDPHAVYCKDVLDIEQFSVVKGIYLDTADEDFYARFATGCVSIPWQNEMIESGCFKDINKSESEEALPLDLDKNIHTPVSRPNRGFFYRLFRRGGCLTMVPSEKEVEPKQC

[8] = target: Tyrosine-protein kinase JAK3 (Homo sapiens) (UniProt P52333); experiment: Inhibition of human JAK3 at 1 uM using MBP as substrate in presence of [gamma33P]-ATP by HotSpot assay relative to control
Tyrosine-protein kinase JAK3 (Homo sapiens), sequence (P52333 whole entry): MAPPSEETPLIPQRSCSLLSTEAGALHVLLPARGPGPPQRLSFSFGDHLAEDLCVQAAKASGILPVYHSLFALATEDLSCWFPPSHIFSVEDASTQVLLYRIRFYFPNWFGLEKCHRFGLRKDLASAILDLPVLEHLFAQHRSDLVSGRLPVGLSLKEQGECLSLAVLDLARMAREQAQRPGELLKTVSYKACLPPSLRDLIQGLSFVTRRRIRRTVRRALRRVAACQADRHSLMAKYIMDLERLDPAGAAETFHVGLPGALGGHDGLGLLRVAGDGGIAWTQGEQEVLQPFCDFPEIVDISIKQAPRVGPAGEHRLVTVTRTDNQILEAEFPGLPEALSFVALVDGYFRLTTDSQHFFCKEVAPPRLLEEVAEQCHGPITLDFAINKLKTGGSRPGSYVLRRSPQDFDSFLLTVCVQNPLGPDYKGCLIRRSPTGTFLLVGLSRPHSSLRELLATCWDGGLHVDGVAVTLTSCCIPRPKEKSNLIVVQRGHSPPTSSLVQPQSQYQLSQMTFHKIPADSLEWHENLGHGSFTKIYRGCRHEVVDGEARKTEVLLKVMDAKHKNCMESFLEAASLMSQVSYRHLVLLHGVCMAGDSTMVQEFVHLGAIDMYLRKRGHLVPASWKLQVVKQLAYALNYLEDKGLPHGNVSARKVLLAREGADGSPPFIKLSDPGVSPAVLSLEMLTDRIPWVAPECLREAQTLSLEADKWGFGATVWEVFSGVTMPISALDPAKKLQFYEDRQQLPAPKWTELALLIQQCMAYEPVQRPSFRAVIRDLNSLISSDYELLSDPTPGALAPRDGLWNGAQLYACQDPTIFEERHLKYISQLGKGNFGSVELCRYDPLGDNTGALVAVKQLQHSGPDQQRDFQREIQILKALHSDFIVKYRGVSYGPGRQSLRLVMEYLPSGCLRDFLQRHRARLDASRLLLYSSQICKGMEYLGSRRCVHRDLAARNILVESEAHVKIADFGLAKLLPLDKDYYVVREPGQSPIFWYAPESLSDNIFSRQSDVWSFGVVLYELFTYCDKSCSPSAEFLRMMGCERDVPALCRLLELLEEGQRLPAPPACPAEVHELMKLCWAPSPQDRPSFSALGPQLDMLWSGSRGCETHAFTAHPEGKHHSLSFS

[9] = target: Mitogen-activated protein kinase 1 (Homo sapiens) (UniProt P28482); experiment: Inhibition of human MAPK1 at 1 uM using MBP as substrate in presence of [gamma33P]-ATP by HotSpot assay relative to control
[10] = target: Serine/threonine-protein kinase Nek4 (Homo sapiens) (UniProt P51957); experiment: Inhibition of human NEK4 at 1 uM using MBP as substrate in presence of [gamma33P]-ATP by HotSpot assay relative to control
[11] = target: High affinity nerve growth factor receptor (Homo sapiens) (UniProt P04629); experiment: Inhibition of human NTRK1 at 1 uM using poly (Glu, Tyr)4:1 as substrate in presence of [gamma33P]-ATP by HotSpot assay relative to control
[12] = target: Protein kinase C beta type (Homo sapiens) (UniProt P05771); experiment: Inhibition of human PKCb2 at 1 uM using ERMRPRKRQGSVRRRV as substrate in presence of [gamma33P]-ATP by HotSpot assay relative to control
[13] = target: Protein kinase C alpha type (Homo sapiens) (UniProt P17252); experiment: Inhibition of human PRKCA at 1 uM using ERMRPRKRQGSVRRRV as substrate in presence of [gamma33P]-ATP by HotSpot assay relative to control
[14] = target: Protein kinase C iota type (Homo sapiens) (UniProt P41743); experiment: Inhibition of human PRKCI at 1 uM using ERMRPRKRQGSVRRRV as substrate in presence of [gamma33P]-ATP by HotSpot assay relative to control
[15] = target: Serine/threonine-protein kinase Sgk3 (Homo sapiens) (UniProt Q96BR1); experiment: Inhibition of human SGK3 at 1 uM using GRPRTSSFAEG as substrate in presence of [gamma33P]-ATP by HotSpot assay relative to control
[16] = target: Tyrosine-protein kinase SYK (Homo sapiens) (UniProt P43405); experiment: Inhibition of human SYK at 1 uM using poly (Glu, Tyr)4:1 as substrate in presence of [gamma33P]-ATP by HotSpot assay relative to control
[17] = target: Serine/threonine-protein kinase TAO2 (Homo sapiens) (UniProt Q9UL54); experiment: Inhibition of human TAOK2 at 1 uM using MBP as substrate in presence of [gamma33P]-ATP by HotSpot assay relative to control
[18] = target: Serine/threonine-protein kinase TBK1 (Homo sapiens) (UniProt Q9UHD2); experiment: Inhibition of human TBK1 at 1 uM using MBP as substrate in presence of [gamma33P]-ATP by HotSpot assay relative to control
[19] = system: NCI-H2228; experiment: Antitumor activity against ALK positive human NCI-H2228 cells xenografted in SCID beige mouse assessed as inhibition of tumor growth administered orally once daily for 21 days; format: functional, cell-based; details: dose 10-50 mg/kg, route po, time 21.0 day
[20] = system: KARPAS-299; experiment: Antitumor activity against ALK positive human KARPAS-299 cells xenografted in SCID beige mouse assessed as tumor regression at 50 mg/kg, po administered once daily for 14 days and measured after 13 days relative to control; format: functional; details: time 27 day
[21] = system: Mus musculus; experiment: In vivo inhibition of ALK signaling in SCID Beige mouse xenografted with ALK positive human KARPAS-299 cells assessed as reduction in phosphorylated ERK1/2 level at 10 to 50 mg/kg, po administered as single dose and measured at 6 to 24 hrs by immunoblot analysis; format: functional, organism-based; details: dose 10-50 mg/kg, time 6-24 hrs
[22] = system: BaF3; experiment: Antitumor activity against mouse BaF3 cells expressing native EML4-ALK implanted in mouse assessed as tumor regression at 50 mg/kg, po administered once daily and measured after 8 days relative to control; format: functional; details: time 8 day
[23] = Average plasma concentration in CB-17/SCID mouse implanted with mouse BaF3 cells expressing EML4-ALK G1202R mutant at 50 mg/kg, po administered once daily for 7 days by LC-MS/MS analysis; format: ADME, organism-based; details: in vivo, 168 h, time 7 day
[24] = system: BaF3; details: dose 50 mg/kg; route po; time 8 day
[25] = system: EML4-ALK (Homo sapiens), Q9UM73+Q9HC35 [F1174V]; details: BaF3, time 3-5 weeks
[26] = system: EML4-ALK (Homo sapiens), Q9UM73+Q9HC35 [I1171N]; details: BaF3, dose 750.0 nmol/L, time 3-5 weeks
[27] = system: EML4-ALK (Homo sapiens), Q9UM73+Q9HC35 [C1156Y]; details: BaF3, dose 500.0 nmol/L, time 3-5 weeks
EML4-ALK (Homo sapiens), Q9UM73+Q9HC35 [C1156Y], sequence (Q9UM73 whole entry C1156Y): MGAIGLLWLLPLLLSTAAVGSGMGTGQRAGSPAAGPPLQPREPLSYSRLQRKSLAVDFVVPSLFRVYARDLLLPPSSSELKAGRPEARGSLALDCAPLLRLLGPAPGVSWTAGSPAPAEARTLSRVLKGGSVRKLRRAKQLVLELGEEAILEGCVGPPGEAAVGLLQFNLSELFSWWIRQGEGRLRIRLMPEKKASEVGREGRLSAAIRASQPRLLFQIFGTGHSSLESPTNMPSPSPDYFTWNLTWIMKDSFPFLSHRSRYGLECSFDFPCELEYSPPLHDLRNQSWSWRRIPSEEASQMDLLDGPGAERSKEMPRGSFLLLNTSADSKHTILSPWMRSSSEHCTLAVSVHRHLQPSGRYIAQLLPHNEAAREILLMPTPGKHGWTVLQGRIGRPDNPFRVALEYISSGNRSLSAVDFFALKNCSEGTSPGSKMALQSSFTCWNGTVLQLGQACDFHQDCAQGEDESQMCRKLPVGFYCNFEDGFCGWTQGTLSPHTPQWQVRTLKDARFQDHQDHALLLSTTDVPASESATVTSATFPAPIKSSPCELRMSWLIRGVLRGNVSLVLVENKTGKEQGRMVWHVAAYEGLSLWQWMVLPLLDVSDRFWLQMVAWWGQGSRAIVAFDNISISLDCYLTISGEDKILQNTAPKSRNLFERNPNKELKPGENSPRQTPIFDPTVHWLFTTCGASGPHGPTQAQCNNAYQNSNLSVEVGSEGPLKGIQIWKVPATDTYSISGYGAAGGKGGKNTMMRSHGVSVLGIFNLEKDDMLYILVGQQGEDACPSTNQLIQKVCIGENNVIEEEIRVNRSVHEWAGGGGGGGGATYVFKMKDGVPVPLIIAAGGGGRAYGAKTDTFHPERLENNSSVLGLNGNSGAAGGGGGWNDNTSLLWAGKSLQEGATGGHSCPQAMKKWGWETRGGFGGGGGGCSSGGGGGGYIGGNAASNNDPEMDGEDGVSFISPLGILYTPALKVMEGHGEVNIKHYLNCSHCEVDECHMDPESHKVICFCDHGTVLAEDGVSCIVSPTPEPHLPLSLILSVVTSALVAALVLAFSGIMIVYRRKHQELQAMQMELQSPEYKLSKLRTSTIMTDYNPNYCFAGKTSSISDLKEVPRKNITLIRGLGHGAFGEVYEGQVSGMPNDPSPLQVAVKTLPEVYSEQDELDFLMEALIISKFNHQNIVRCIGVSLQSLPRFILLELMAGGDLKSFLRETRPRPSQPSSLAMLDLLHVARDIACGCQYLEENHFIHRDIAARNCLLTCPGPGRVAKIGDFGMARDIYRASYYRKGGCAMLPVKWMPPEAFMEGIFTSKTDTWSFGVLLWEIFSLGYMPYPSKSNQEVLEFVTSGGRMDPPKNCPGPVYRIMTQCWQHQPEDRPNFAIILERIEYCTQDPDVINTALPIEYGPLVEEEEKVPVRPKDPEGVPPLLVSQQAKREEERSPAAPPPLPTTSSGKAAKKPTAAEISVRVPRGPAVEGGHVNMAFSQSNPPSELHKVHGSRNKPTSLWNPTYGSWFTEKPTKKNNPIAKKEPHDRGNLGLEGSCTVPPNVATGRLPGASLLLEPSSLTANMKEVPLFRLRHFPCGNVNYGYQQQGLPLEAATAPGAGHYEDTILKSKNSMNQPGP
EML4-ALK (Homo sapiens), Q9UM73+Q9HC35 [C1156Y], sequence (Q9HC35 whole entry partner): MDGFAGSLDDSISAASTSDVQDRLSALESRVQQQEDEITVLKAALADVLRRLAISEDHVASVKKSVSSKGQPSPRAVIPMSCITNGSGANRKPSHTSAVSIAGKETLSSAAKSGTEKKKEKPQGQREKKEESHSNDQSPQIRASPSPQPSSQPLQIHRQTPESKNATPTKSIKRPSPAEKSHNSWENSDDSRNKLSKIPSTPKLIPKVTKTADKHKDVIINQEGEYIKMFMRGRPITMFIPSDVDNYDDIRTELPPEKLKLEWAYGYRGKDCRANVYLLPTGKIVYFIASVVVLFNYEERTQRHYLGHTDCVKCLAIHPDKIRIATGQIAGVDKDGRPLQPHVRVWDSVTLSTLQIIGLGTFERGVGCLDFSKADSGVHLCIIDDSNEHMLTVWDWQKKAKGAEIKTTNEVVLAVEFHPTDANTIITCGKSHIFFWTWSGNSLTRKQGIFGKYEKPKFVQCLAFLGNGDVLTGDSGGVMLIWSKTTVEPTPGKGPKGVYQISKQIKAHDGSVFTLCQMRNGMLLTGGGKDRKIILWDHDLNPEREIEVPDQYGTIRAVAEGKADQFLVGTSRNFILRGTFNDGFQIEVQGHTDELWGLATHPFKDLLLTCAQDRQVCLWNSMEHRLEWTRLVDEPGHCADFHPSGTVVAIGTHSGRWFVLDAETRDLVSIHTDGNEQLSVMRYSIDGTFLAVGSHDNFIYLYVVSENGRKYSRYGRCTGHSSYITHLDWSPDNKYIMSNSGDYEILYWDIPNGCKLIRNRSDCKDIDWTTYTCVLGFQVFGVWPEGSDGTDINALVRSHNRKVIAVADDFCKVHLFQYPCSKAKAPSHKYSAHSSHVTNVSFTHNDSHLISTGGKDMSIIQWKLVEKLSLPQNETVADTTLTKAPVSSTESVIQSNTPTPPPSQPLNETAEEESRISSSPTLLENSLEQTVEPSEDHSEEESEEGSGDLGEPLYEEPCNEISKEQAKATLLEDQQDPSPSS

[28] = system: EML4-ALK (Homo sapiens), Q9UM73+Q9HC35 [E1210K]; details: BaF3, dose 500.0 nmol/L, time 3-5 weeks
[29] = system: EML4-ALK (Homo sapiens), Q9UM73+Q9HC35 [F1174C]; details: BaF3, dose 500.0 nmol/L, time 3-5 weeks

For COc1cc(N2CCC(N3CCN(C)CC3)CC2)ccc1Nc1ncc(Cl)c(Nc2ccccc2P(C)(C)=O)n1 [BRIGATINIB], the IC50 [1] was 3.9 nM, the IC50 [2] was 197 nM and the IC50 [3] was 895 nM. It also gave an inhibition [4] of under 90%, an inhibition [5] of under 90% and an inhibition [6] of under 90%. For the same compound, the inhibition [7] was under 90%, the inhibition [8] was under 90% and the inhibition [9] was under 90%. It also gave an inhibition [10] of under 90%, an inhibition [11] of under 90% and an inhibition [12] of under 90%. For the same compound, the inhibition [13] was under 90%, the inhibition [14] was under 90% and the inhibition [15] was under 90%. The inhibition [16] was under 90%, the inhibition [17] was under 90% and the inhibition [18] was under 90%. For the same compound, the Activity [19] was “Dose-Dependent Effect”, the Activity [20] was about 100% and the Activity [21] was “Active”. The Activity [22] was 89%, the Cave [23] was 5.151 µM and the TGI [24] was 88%. The IC90 [25] was 195 nM, the inhibition [26] was “Active” and the inhibition [27] was “Active”. For the same compound, the inhibition [28] was “Active” and the inhibition [29] was “Active”.
